Laboratory results from patent US10894784B2, “Heteroarylbenzimidazole compounds” (BAYER PHARMA AKTIENGESELLSCHAFT, priority 2015, dated 2021).

Target: TBK1 (Homo sapiens (Human), UniProt Q9UHD2)
Assay: TBK1 low ATP kinase assay (in vitro assay 1)
Format: biochemical
Conditions: in vitro assay 1, read-out: TBK1 low ATP kinase assay IC50

Chain of TBK1 (Q9UHD2 whole entry): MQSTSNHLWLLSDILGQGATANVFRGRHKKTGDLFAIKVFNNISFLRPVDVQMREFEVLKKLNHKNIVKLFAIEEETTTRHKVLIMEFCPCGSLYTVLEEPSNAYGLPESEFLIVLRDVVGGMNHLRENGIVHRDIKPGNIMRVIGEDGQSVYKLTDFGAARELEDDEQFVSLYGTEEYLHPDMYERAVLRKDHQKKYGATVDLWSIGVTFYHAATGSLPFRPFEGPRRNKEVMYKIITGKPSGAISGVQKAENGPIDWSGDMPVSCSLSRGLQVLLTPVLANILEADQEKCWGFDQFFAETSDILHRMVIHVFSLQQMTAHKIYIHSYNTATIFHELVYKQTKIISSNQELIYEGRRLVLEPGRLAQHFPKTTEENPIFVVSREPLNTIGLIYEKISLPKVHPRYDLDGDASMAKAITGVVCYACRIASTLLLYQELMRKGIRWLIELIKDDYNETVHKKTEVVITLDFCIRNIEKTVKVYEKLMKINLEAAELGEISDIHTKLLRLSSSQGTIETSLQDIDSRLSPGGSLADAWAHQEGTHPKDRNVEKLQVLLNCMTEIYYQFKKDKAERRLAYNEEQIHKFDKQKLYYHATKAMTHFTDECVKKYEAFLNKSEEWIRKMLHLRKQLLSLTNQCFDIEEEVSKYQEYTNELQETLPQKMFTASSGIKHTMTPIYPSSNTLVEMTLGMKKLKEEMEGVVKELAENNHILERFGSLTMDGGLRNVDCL

| SMILES | IC50 [nM] |
| --- | --- |
| Cc1nccc(-c2ccc3nc(Nc4cc(C(C)N5CCN(C(=O)CC(F)(F)F)CC5)ccn4)[nH]c3c2)n1 (racemic) [Example 24.04.03, (rac)-3,3,3-trifluoro-1-{4-[1-(2-{[6-(2-methylpyrimidin-4-yl)-1H-benzimidazol-2-yl]amino}pyridin-4-yl)ethyl]piperazin-1-yl}propan-1-one] | 12.4 |
| CC(c1ccnc(Nc2nc3ccc(-c4cc(N5CCOCC5)ncn4)cc3[nH]2)c1)N1CCN(C(=O)OC(C)(C)C)CC1 (single isomer, unassigned) [Example 118.01, tert-butyl 4-{(1R or 1S)-1-[2-({6-[6-(morpholin-4-yl)pyrimidin-4-yl]-1H-benzimidazol-2-yl}amino)pyridin-4-yl]ethyl}piperazine-1-carboxylate] | 7.9 |
| COCCCNc1cc(-c2ccc3nc(Nc4cc(CN5CCN(C(=O)CC(F)(F)F)CC5)ccn4)[nH]c3c2)ncn1 [Example 90.02, 3,3,3-trifluoro-1-[4-({2-[(6-{6-[(3-methoxypropyl)amino]pyrimidin-4-yl}-1H-benzimidazol-2-yl)amino]pyridin-4-yl}methyl)piperazin-1-yl]propan-1-one] | 11 |
| CCN(C)c1cc(-c2ccc3nc(Nc4cc(CN5CCN(C(=O)OC(C)(C)C)CC5)ccn4)[nH]c3c2)ncn1 [Example 148.01, tert-butyl 4-({2-[(6-{6-[ethyl(methyl)amino]pyrimidin-4-yl}-1H-benzimidazol-2-yl)amino]pyridin-4-yl}methyl)piperazine-1-carboxylate] | 25 |
| Cc1cc(-c2ccc3nc(Nc4cc(CN5CCN(C(=O)OC(C)(C)C)CC5)ccn4)[nH]c3c2)ccn1 [Example 01.01, tert-butyl 4-[(2-{[6-(2-methylpyridin-4-yl)-1H-benzimidazol-2-yl]amino}pyridin-4-yl)methyl]piperazine-1-carboxylate] | 150 |
| CCS(=O)(=O)N1CCN(Cc2ccnc(Nc3nc4ccc(-c5ncncc5OC)cc4[nH]3)c2)CC1 [Example 35.01.08, N-(4-{[4-(ethylsulfonyl)piperazin-1-yl]methyl}pyridin-2-yl)-6-(5-methoxypyrimidin-4-yl)-1H-benzimidazol-2-amine] | 24.3 |
| CCOc1c(-c2ccncc2OC)ccc2nc(Nc3cc(CN4CCN(C(=O)CC(F)(F)F)CC4)ccn3)[nH]c12 [Example 51.01, 1-{4-[(2-{[7-ethoxy-6-(3-methoxypyridin-4-yl)-1H-benzimidazol-2-yl]amino}pyridin-4-yl)methyl]piperazin-1-yl}-3,3,3-trifluoropropan-1-one] | 148 |
| CCOc1cc(-c2ccc3nc(Nc4cc(CN5CCN(C(=O)CC(F)(F)F)CC5)ccn4)[nH]c3c2)ncn1 [Example 161.02, 1-{4-[(2-{[6-(6-ethoxypyrimidin-4-yl)-1H-benzimidazol-2-yl]amino}pyridin-4-yl)methyl]piperazin-1-yl}-3,3,3-trifluoropropan-1-one] | 7.7 |
| Cc1cnn(C)c1-c1ccc2nc(Nc3cc(C(C)N4CCN(C(=O)CC(F)(F)F)CC4)ccn3)[nH]c2c1 (single isomer, unassigned) [Example 73.01, 1-{4-[(1R or 1S)-1-(2-{[6-(1,4-dimethyl-1H-pyrazol-5-yl)-1H-benzimidazol-2-yl]amino}pyridin-4-yl)ethyl]piperazin-1-yl}-3,3,3-trifluoropropan-1-one] | 67 |
| CC(c1ccnc(Nc2nc3ccc(-c4cc(N5CCOCC5)ncn4)cc3[nH]2)c1)N1CCN(C(=O)C2(C(F)(F)F)CC2)CC1 (single isomer, unassigned) [Example 118.04, (4-{(1R or 1S)-1-[2-({6-[6-(morpholin-4-yl)pyrimidin-4-yl]-1H-benzimidazol-2-yl}amino)pyridin-4-yl]ethyl}piperazin-1-yl)[1-(trifluoromethyl)cyclopropyl]methanone] | 2.6 |
| CC(c1ccnc(Nc2nc3ccc(-c4cc(OCC(F)(F)C(F)(F)F)ncn4)cc3[nH]2)c1)N1CCN(C(=O)OC(C)(C)C)CC1 (single isomer, unassigned) [Example 166.01, tert-butyl 4-{(1R or 1S)-1-[2-({6-[6-(2,2,3,3,3-pentafluoropropoxy)pyrimidin-4-yl]-1H-benzimidazol-2-yl}amino)pyridin-4-yl]ethyl}piperazine-1-carboxylate] | 300 |
| CN(C)c1ccnc(-c2ccc3nc(Nc4cc(CN5CCN(C(=O)OC(C)(C)C)CC5)ccn4)[nH]c3c2)n1 [Example 181.01, tert-butyl 4-{[2-({6-[4-(dimethylamino)pyrimidin-2-yl]-1H-benzimidazol-2-yl}amino)pyridin-4-yl]methyl}piperazine-1-carboxylate] | 791 |
| CC(c1ccnc(Nc2nc3ccc(-c4cnn(CC5CC5(F)F)c4)c(F)c3[nH]2)c1)N1CCN(C(=O)CC(F)(F)F)CC1 (single isomer, unassigned) [Example 86.02, 1-{4-[(1R or 1S)-1-(2-{[6-(1-{[(1RS)-2,2-difluorocyclopropyl]methyl}-1H-pyrazol-4-yl)-7-fluoro-1H-benzimidazol-2-yl]amino}pyridin-4-yl)ethyl]piperazin-1-yl}-3,3,3-trifluoropropan-1-one] | 2.1 |
| CC(c1ccnc(Nc2nc3ccc(-c4ccnn4C)cc3[nH]2)c1)N1CCN(C(=O)CC(F)(F)F)CC1 (single isomer, unassigned) [Example 123.02, 3,3,3-trifluoro-1-{4-[(1R or 1S)-1-(2-{[6-(1-methyl-1H-pyrazol-5-yl)-1H-benzimidazol-2-yl]amino}pyridin-4-yl)ethyl]piperazin-1-yl}propan-1-one] | 35 |

More lines, now with the values ahead:

| IC50 [nM] | SMILES |
| --- | --- |
| 0.48 | O=C(CC(F)(F)F)N1CCN(Cc2ccnc(Nc3nc4ccc(-c5cc(NC6CCC6)ncn5)cc4[nH]3)c2)CC1 [Example 152.02, 1-(4-{[2-({6-[6-(cyclobutylamino)pyrimidin-4-yl]-1H-benzimidazol-2-yl}amino)pyridin-4-yl]methyl}piperazin-1-yl)-3,3,3-trifluoropropan-1-one] |
| 560 | Cc1noc(-c2ccc3nc(Nc4cc(CN5CCN(C(N)=O)CC5)ccn4)[nH]c3c2)n1 [Example 101.20, 4-[(2-{[6-(3-methyl-1,2,4-oxadiazol-5-yl)-1H-benzimidazol-2-yl]amino}pyridin-4-yl)methyl]piperazine-1-carboxamide] |
| 82.5 | Cc1noc(-c2ccc3nc(Nc4cc(C(C)N5CCN(C(=O)OC(C)(C)C)CC5)ccn4)[nH]c3c2)n1 (racemic) [Example 16.05.01, (rac)-tert-butyl 4-[1-(2-{[6-(3-methyl-1,2,4-oxadiazol-5-yl)-1H-benzimidazol-2-yl]amino}pyridin-4-yl)ethyl]piperazine-1-carboxylate] |
| 125 | Cc1noc(-c2ccc3nc(Nc4cc(CN5CCN(C(=O)OC(C)(C)C)C[C@H]5C)ccn4)[nH]c3c2)n1 [Example 16.03.01, tert-butyl (3R)-3-methyl-4-[(2-{[6-(3-methyl-1,2,4-oxadiazol-5-yl)-1H-benzimidazol-2-yl]amino}pyridin-4-yl)methyl]piperazine-1-carboxylate] |
| 405 | Cc1noc(-c2ccc3nc(Nc4cc(CN5C[C@@H](C)N(C(=O)C6CCC6)C[C@@H]5C)ccn4)[nH]c3c2)n1 [Example 16.02.05, cyclobutyl{(2R,5S)-2,5-dimethyl-4-[(2-{[6-(3-methyl-1,2,4-oxadiazol-5-yl)-1H-benzimidazol-2-yl]amino}pyridin-4-yl)methyl]piperazin-1-yl}methanone] |
| 150 | COc1cccnc1N1CCN(Cc2ccnc(Nc3nc4ccc(-c5nc(C)no5)cc4[nH]3)c2)CC1 [Example 101.17, N-(4-{[4-(3-methoxypyridin-2-yl)piperazin-1-yl]methyl}pyridin-2-yl)-6-(3-methyl-1,2,4-oxadiazol-5-yl)-1H-benzimidazol-2-amine] |
| 28.5 | COc1cnccc1-c1ccc2nc(Nc3cc(CN4CCN(C(=O)OC(C)(C)C)CC4)ccn3)[nH]c2c1 [Example 04.01, tert-butyl 4-[(2-{[6-(3-methoxypyridin-4-yl)-1H-benzimidazol-2-yl]amino}pyridin-4-yl)methyl]piperazine-1-carboxylate] |
| 25.3 | COc1cnccc1-c1ccc2nc(Nc3cc(CN4CCN(C(=O)CC5CC5)CC4)ccn3)[nH]c2c1 [Example 04.05, 2-cyclopropyl-1-{4-[(2-{[6-(3-methoxypyridin-4-yl)-1H-benzimidazol-2-yl]amino}pyridin-4-yl)methyl]piperazin-1-yl}ethanone] |
| 35.4 | Cc1nccc(-c2ccc3nc(Nc4cc(CN5CCN(C(=O)CC(F)(F)F)CC5)ccn4)[nH]c3c2)n1 [Example 24.01.01, 3,3,3-trifluoro-1-{4-[(2-{[6-(2-methylpyrimidin-4-yl)-1H-benzimidazol-2-yl]amino}pyridin-4-yl)methyl]piperazin-1-yl}propan-1-one] |
| 540 | O=C(CC(F)(F)F)N1CCN(Cc2ccnc(Nc3nc4ccc(-c5cnc(Cl)cn5)cc4[nH]3)c2)CC1 [Example 140.02, 1-{4-[(2-{[6-(5-chloropyrazin-2-yl)-1H-benzimidazol-2-yl]amino}pyridin-4-yl)methyl]piperazin-1-yl}-3,3,3-trifluoropropan-1-one] |
| 5.4 | COc1c(NCC2CC2)ncnc1-c1ccc2nc(Nc3cc(CN4CCN(C(=O)CC(F)(F)F)CC4)ccn3)[nH]c2c1 [Example 109.01.02, 1-[4-({2-[(6-{6-[(cyclopropylmethyl)amino]-5-methoxypyrimidin-4-yl}-1H-benzimidazol-2-yl)amino]pyridin-4-yl}methyl)piperazin-1-yl]-3,3,3-trifluoropropan-1-one] |
| 154 | CC(C)Cc1noc(-c2ccc3nc(Nc4cc(CN5CCN(C(=O)C6CC6)CC5)ccn4)[nH]c3c2)n1 [Example 18.02, cyclopropyl(4-{[2-({6-[3-(2-methylpropyl)-1,2,4-oxadiazol-5-yl]-1H-benzimidazol-2-yl}amino)pyridin-4-yl]methyl}piperazin-1-yl)methanone] |
| 26 | CC(c1ccnc(Nc2nc3ccc(-c4ccnn4C)cc3[nH]2)c1)N1CCN(C(=O)C2CC2)CC1 (single isomer, unassigned) [Example 123.03, cyclopropyl{4-[(1R or 1S)-1-(2-{[6-(1-methyl-1H-pyrazol-5-yl)-1H-benzimidazol-2-yl]amino}pyridin-4-yl)ethyl]piperazin-1-yl}methanone] |
